The text below walks through data of US12691119B2, “Methods for treating covid-19 with sepiapterin” (PTC Therapeutics MP, Inc., priority 2021, dated 2026).

Each structure is given as a SMILES string.

One data set deals with OT-I cells. The data set can be described thus: OT-I splenocyte transfer with ova peptide-pulsed BMDCs; proliferation and IFN-γ by flow cytometry. Conditions: mice. Type of data set: in vivo, C57/B16 mice. The protocol:
FIG. 3A is a graph showing the proliferation and activation of CD8^+ T cells in the presence of sepiapterin in vivo.
FIG. 3B is a graph showing cytokine (IFN-γ) expression in cells in the presence of sepiapterin in vivo.
2×10^6 OT-I splenocytes were injected into C57/B16 mice via tail vein injection. 24 hours later, 1×10^6 ova peptide-pulsed bone marrow derived dendritic cells were injected into these mice subcutaneously. Starting on day 3, mice were given 10 mg/kg SP orally for 3 consecutive days. On day 6, mice were sacrificed and spleens were harvested and stimulated for 6 hours with brefeldin A (BFA), phorbol myristate acetate (PMA), and ionomycin. OT-I proliferation (FIG. 3A) and IFN-γ expression (FIG. 3B) were assessed via flow cytometry.

Data set [1] deals with CD8+ T cells (pmel splenocytes). The experiment in a line: CFSE-labeled pmel splenocytes co-cultured with gp100-pulsed BMDCs; CFSE dilution by flow cytometry, cytokines by ELISA. Particulars: in vitro. It is filed as cell-based. The source says:
FIG. 2A is a graph showing the proliferation and activation of CD8^+ T cells in the presence of sepiapterin in vitro.
FIG. 2B is a graph showing cytokine (interferon gamma, IFN-γ) expression in cells in the presence of sepiapterin in vitro.
FIG. 2C is a graph showing cytokine (interleukin 2, IL-2) expression in cells in the presence of sepiapterin in vitro.
1×10^5 pmel splenocytes were labeled with carboxyfluorescein succinimidyl ester (CFSE) and then co-cultured, at either a 1:10 or 1:40 ratio (splenocytes:BMDC), with gp100-pulsed bone marrow derived dendritic cells (BMDCs) for 3 days. Sepiapterin (SP) was added after BMDCs were added to splenocytes. After incubation, CFSE dilution was measured via flow cytometry (FIG. 2A) and cytokine expression was measured via ELISA (FIGS. 2B and 2C). No DC=no dendritic cells, UT=untreated. […] The enhanced secretion of IFN-γ in FIG. 2B is a result of the higher number of T cells present in wells treated with SP.

In data set [2] the test system is cytokine expression in the lungs. The data set can be described thus: Intranasal LPS model of ARDS, cytokine expression in BAL fluid by ELISA. Particulars: mice, 10 mg/kg per day oral gavage for 3 days, then 40 ug LPS intranasally; BAL 16-18 hours later; FIG. 1. Type of data set: in vivo. The protocol: FIG. 1 is a graph showing cytokine expression in the lungs of mice treated with intranasal lipopolysaccharide (LPS) with or without 10 mg/kg sepiapterin (SP) treatment.
This is in line with the therapeutic effect of SP in a Dextran Sulfate Sodium//Azoxymethane model of colitis/colon cancer.
Mice were treated with either 10 mg/kg sepiapterin (SP) per day delivered via oral gavage or nothing for 3 days. Mice were then treated with 40 ug lipopolysaccharide (LPS) inhaled intranasally. 16-18 hours later, bronchoalveolar lavage (BAL) fluid was collected and assess for cytokine expression via ELISA. Untreated (UT) (n=1), LSP (n=3), LSP+SP (n=2). (FIG. 1).

For data set [3] the following is noted: healthy volunteers and subjects with Phenylketonuria, Primary BH4 Deficiencies, or diabetic gastroparesis; cited from earlier work.
The test system of data set [4] is innate immune cell mediated inflammation in the colon. Particulars: caused by DSS in the colon, preclinical models; cited from earlier work.
Data set [5] is described as follows: Stability on exposure to air. It is filed as physicochemical. Conditions: exposed to air. The source says:
Accordingly, pharmaceutical compositions of the invention may include antioxidants. The antioxidant may minimize the oxidative degradation of sepiapterin. […]

`C[C@H](O)C(=O)C1=Nc2c(nc(N)[nH]c2=O)NC1` [sepiapterin, (S)-2-amino-6-(2-hydroxypropanoyl)-7,8-dihydropteridin-4(3H)-one]: the OT-I proliferation entry in the data set with OT-I cells (10 mg/kg orally for 3 consecutive days from day 3, spleens day 6, FIG. 3A) is reported as “enhanced proliferation of OT-I cells”. In addition, the “T cell activation and IFN-γ secretion” value in the data set on OT-I cells (10 mg/kg orally for 3 consecutive days, spleens stimulated 6 hours with BFA, PMA, ionomycin, FIG. 3B) is “minimal effect on T cell activation and IFN-γ secretion”; in data set [1] (ELISA, FIGS. 2B and 2C), “without directly affecting T cell activation and IFN-γ secretion”. Further, the “proliferation of CD8+ T cells (CFSE dilution)” value in data set [1] (3 days co-culture, 1:10 or 1:40 splenocytes:BMDC, FIG. 2A) is listed as “enhanced proliferation of anti-viral CD8^+ T cells in a dose dependent manner”. The “cytokine expression in bronchoalveolar lavage (BAL) fluid” value in data set [2] is recorded as “lower levels of cytokine expression”. For the same molecule, the tolerability result in data set [3] is on record as “well tolerated”. The “innate immune cell mediated inflammation” value in data set [4] was “profoundly suppress innate immune cell mediated inflammation”. Further, the oxidation stability result in data set [5] is “prone to rapid oxidation when exposed to air”.
